Biological target: T1, HIV-1 integrase (HIV-1 M:B_HXB2R, UniProt P04585)
T1 construct: gene gag-pol; WT integrase, cut from Gag-Pol polyprotein
Test: ELISA overall integration assay, biotin / digoxigenin labelled oligonucleotides
Format: biochemical
Conditions: overall integration reaction; 10 mM MgCl2, 5 mM DTT, 20 mM HEPES pH 7.5, 5% PEG, 15% DMSO, 37 °C, 1 h
Text: ELISA overall integration assay, biotin / digoxigenin labelled oligonucleotides on HIV-1 integrase

SMILES | IC50 ^a (μM/ml)
Cc1cc(C)nc(NS(=O)(=O)c2ccc(N=C3C(=O)N(C(=O)c4ccccc4)c4ccc(Br)cc43)cc2)n1 [SPIII-5Br-BZ] | > 250
CC(=O)N1C(=O)C(=Nc2ccc(S(=O)(=O)Nc3nc(C)cc(C)n3)cc2)c2cc(Br)ccc21 [SPIII-5Br-AC] | > 250
CC(=O)N1C(=O)C(=Nc2ccc(S(=O)(=O)Nc3nc(C)cc(C)n3)cc2)c2cc(C)ccc21 [SPIII-5Me-AC, 4-(1-acetyl-5-methyl-2-oxoindolin-3-ylideneamino)-N-(4,6-dimethylpyrimidin-2-yl)benzenesulfonamide] | 53.62±11.67
